Laboratory results reported in PMC12973313 (Chemical Science, 2026).
Values after ≈ are worked out from the molar mass of the structure shown. Read-outs that look alike come from different tables or passages of the source.

Tests used:
S. aureus USA300 = assay: MIC assay; format: cell-based; details: Staphylococcus aureus
Protocol: Next generation SSAs 3, 5, 7, and 9 were specifically designed to increase the activity of SSAs against both drug susceptible and resistant S. aureus and ovarian cancer cells. […] These strains include: (i) USA300, a common clinically relevant, methicillin resistant strain;[47] […]
(§1) Section S3: Biological methods […]
Preparation of bacterial plates : Sterile TSB agar plates were streaked using the desired […]
(§2) Preparation of inoculum: An initial culture was made up by inoculating TSB (5 mL) with 3 single colonies of the desired bacteria under sterile conditions and incubated at 37 °C overnight. The optical density at 600 nm (OD 600) was adjusted using sterile distilled H 2O (dH2O) to equal ~1 x 10^6 bacteria/mL.
(§3) Preparation of 96 -well microplate : A solution of each compound in H2O/5 % EtOH was made […]
The compound solution (200 […]
µL) was added to and diluted 50:50 down the plate. The bacterial suspension (100 µL) was dispensed into each well under sterile conditions. […]

E. Faecalis NCTC 12201 = assay: MIC assay; format: cell-based; details: Enterococcus faecalis, NCTC12201; lowest concentration with no visible growth
Protocol: as §1
Preparation of bacterial plates : Sterile TSB agar plates were streaked using the desired bacteria [Staphylococcus aureus (9144, 13616, USA 300 and 1199B ), Enterococcus faecalis (NCTC 775 and 12201 ) and Enterococcus faecium (NCTC 12204)] and incubated at 37 °C […]
as §2, §3
. The compound solution (200
[…]. The bacterial suspension (100 µL) was dispensed into each well under sterile conditions. The plates were sealed using parafilm and incubated at 37 °C for 20 hours, after which the OD 600 was measured.

[1] = tested on: A2780 CisR cisplatin resistant ovarian cancer cells; assay: GI50 determination, SRB assay; format: cell-based, human; details: read-out: Mean GI50 (μM) A2780 CisR SRB Assays
Protocol: (§4) GI50 determination assays
(§5) Cell culture: The RPE-1 retinal pigment epithelial, A2780 human ovarian carcinoma, and A2780 CisR cisplatin resistant human ovarian carcinoma cell lines were donated with thanks from the Institute of Cancer Research. The A2780 and A2780 CisR cell lines were cultured in IMDM supplemented with 10 % FBS at 37 °C and 5 % CO2, while the RPE-1 cell line was cultured in a 1:1 mixture of Dulbecco's Modified Eagle Medium and Ham’s F-12 Nutrient Mixture (DMEM/F-12) at 37 °C and 5 % CO2.
(§6) SRB assay: Cells were seeded into 96-well plates at 800 cells per well/cpw (A2780), 1600 cpw (A2780 CisR) or 400 cpw (RPE-1) in cell culture medium and cultured for 48 hours followed by addition of each compound over an eight-point concentration range (each concentration in triplicate). Plates were then cultured for a further 96 hours, after which the cell culture […]
(§7) medium was removed from each well and the cells fixed with addition of 70 µL/well of 10 % (w/v) trichloroacetic acid (TCA) in distilled water followed by incubation for 30 minutes at RT.
(§8) Each plate was then washed with distilled water five times before addition of 70 µL SRB dye (0.4 % (w/v) SRB dye (ThermoFisher Scientific, USA) solubilised in 1 % (v/v) acetic acid/ dH2O) and incubat ed for 30 minutes at RT, followed by washing three times with 1 % (v/v) acetic acid and drying in a 37 °C oven overnight. Once dry, 100 μl of 10 mM Tris -base (ThermoFisher Scientific, USA) was added to each well and plates put on a microplate shaker for 10 minutes at 200 rpm to solubilize the dye. Absorbance values were then read at wavelength 490 nm on a Victor X4 multi-label plate reader (PerkinElmer Life Sciences, USA), data analysed using Microsoft Excel and graphs produced using GraphPad Prism 9.0 and the GI50 value calculated.
(§9) Solutions and compo und preparation: All solvents and starting materials were purchased from known chemical suppliers. Compound stock solutions were prepared in DMSO. Buffer […]
(§10) 500 mM. Buffer B consisted of Na2SO4 (167 mM) and NaOAc (5 mM) with a pH of 5.5 and an ionic strength of 500 mM.
(§11) Vesicle formation: Giant unilamellar Vesicles (GUVS) were prepared through the electro formation method using a Nanion VesiclePrepPro. A solution of 1,2-diphytanoyl-sn-glycero-3-phosphocholine (DPhPC) (10 mM) with 10 % cholesterol in chloroform (20 µL) was deposited onto an ITO coated glass surface (surface coated glass slide) and allowed to evaporate to create a dehydrated thin lipid film. A greased O-ring was then placed around the dehydrated lipid film to create a seal. This volume was then filled with a sucrose solution (275 µL, 200 mM) and then sealed with a second ITO coated glass slide. An AC current (3 V/5 Hz) was then applied. After 2 hrs, the voltage and frequency were reduced in steps over 30 mins to 1.6 V/1 Hz and held for 1 hr before being reduced to 0 V/0 Hz over a further 30 min […]
(§12) Patch clamp measurements: Experiments were performed using a Port-a-Patch system (Nanion Technologies) with borosilicate glass chips that contain an aperture diameter of approximately 1 µm. Buffer A (5 µL) was placed on the underside of the chip over the aperture, The chip was then placed into the port-a-patch system. Buffer A (15 µL) was then added to the top of the chip and 5 µL of the GUV stock solution added. The GUVS were the positioned over the aperture in the chip by application of negative pressure (-30 mbar).
(§13) When a GUV is positioned over the aperture in the chip, it bursts, leaving a planar bilayer as a seal. The negative pressure is then removed, leaving the planar bilayer in place over the aperture. The external buffer A was the exchanged with buffer B, through four simultaneous […]
(§14) buffer exchanges (4 x 15 µL). […]
(§15) = 30 s, to give a final experimental concentration of 0.1 – 1 mM as appropriate. The number of sweeps was set to 1000, the sweep interval to 0.00 s, sample interval to 1.00 ms and the protocol was run for a total of 5 mins. Each experiment was repeated a minimum of three time to ensure reproducibility.

[2] = tested on: A2780 ovarian cancer cells; assay: GI50 determination, SRB assay; format: cell-based, human; details: for GI50: 96 hours, read-out: Mean GI50 (μM) A2780 SRB Assays
Protocol: as §4, §5, §6, §7, §8, §9, §10, §11, §12, §13, §14, §15

RPE-1 cells = assay: GI50 determination, SRB assay; format: cell-based, human; details: read-out: Mean GI50 (μM) RPE-1 SRB Assays
Protocol: as §4, §5, §6, §7, §8, §9, §10, §11, §12, §13, §14, §15

[3] = Quantitative 1H NMR, D2O 5% EtOH (self-association); format: physicochemical; details: 5.56 mM, 298 K, proportion NMR silent
Source text: However, when supplied as a 1 : 1 enantiomeric mixture, although the trend in increased incorporation of 7 + 9 over 3 + 5 into the higher order aggregate structure was retained from previous observations in polar organic solvents, the total proportion of SSA incorporated into these higher order structures was approximately 20% lower (from ≈ 50% to ≈ 30%) for the 1 : 1 enantiomeric mixture of 3 + 5 over the homogenous solution of those same SSAs.

[4] = USA300, 15 h, total molecular concentration, after 900 min, read-out: MIC USA300
[5] = USA300, lowest concentration with no visible growth, read-out: MIC (mM) S. aureus USA 300

## O=C(O)CNC(=O)Nc1ccc(C(F)(F)F)cc1 [SSA 1]
S. aureus USA300; [4]
  MIC: > 2.78 mM
S. aureus USA300; [5]
  MIC: > 2.78 mM
E. Faecalis NCTC 12201
  MIC: > 2.78 mM
[1]; Homo sapiens, A2780cisR, 96 h
  GI50: 367 µM
[2]; Homo sapiens, A2780, 96 h
  GI50: 117 µM
RPE-1 cells; Homo sapiens, RPE-1, 96 h
  GI50: 296 µM

## CC(C)CC(NC(=O)Nc1ccc(C(F)(F)F)cc1)C(=O)O (centres unmarked) [SSA 3]
[3]; listed as 3
  Q NMR (%) SSA anion: 50%
  Q NMR (%) SSA cation: 44%
S. aureus USA300; [4]
  MIC: > 2.78 mM
E. Faecalis NCTC 12201
  MIC: > 2.78 mM
[1]; Homo sapiens, A2780cisR, 96 h
  GI50: 276 µM
[2]; Homo sapiens, A2780, 96 h
  GI50: 171 µM
RPE-1 cells; Homo sapiens, RPE-1, 96 h
  GI50: > 500 µM

## CC(C)CC(NC(=O)Nc1ccc(C(F)(F)F)cc1)C(=O)O (centres unmarked) [SSA 5]
[3]; listed as 5
  Q NMR (%) SSA anion: 52%
  Q NMR (%) SSA cation: 48%
[1]; 96 hours
  GI50: 498 µM
[2]
  GI50: 231 µM
RPE-1 cells; 96 hours
  GI50: > 375 µM

## O=C(Nc1ccc(C(F)(F)F)cc1)N[C@@H](Cc1ccccc1)C(=O)O [SSA 7]
[3]
  Q NMR (%) SSA anion: 51%
  Q NMR (%) SSA cation: 48%
S. aureus USA300; [4]
  MIC: 0.087 mM (≈ 30.7 µg/mL)
S. aureus USA300; [5]
  MIC: 0.087 mM (≈ 30.7 µg/mL)
E. Faecalis NCTC 12201
  MIC: > 2.78 mM
[1]; Homo sapiens, A2780cisR, 96 h
  GI50: 356 µM
[2]; Homo sapiens, A2780, 96 h
  GI50: 178 µM
RPE-1 cells; Homo sapiens, RPE-1, 96 h
  GI50: > 375 µM

## O=C(Nc1ccc(C(F)(F)F)cc1)N[C@H](Cc1ccccc1)C(=O)O [SSA 9]
[3]
  Q NMR (%) SSA anion: 58%
  Q NMR (%) SSA cation: 53%
S. aureus USA300; [4]
  MIC: 0.087 mM (≈ 30.7 µg/mL)
S. aureus USA300; [5]
  MIC: 0.087 mM (≈ 30.7 µg/mL)
E. Faecalis NCTC 12201
  MIC: > 2.78 mM
[1]; Homo sapiens, A2780cisR, 96 h
  GI50: 197 µM
[2]; Homo sapiens, A2780, 96 h
  GI50: 105 µM
[2]; no impact on RPE-1 cell growth at 350 µM
  selectivity for the cancer cells over the RPE-1 cells: ≥ two-fold
RPE-1 cells; Homo sapiens, RPE-1, 96 h
  GI50: > 375 µM
